PMC11243693, “Synthesis and Biological Evaluation of New Compounds with Nitroimidazole Moiety” (Molecules, 2024)
Converted amounts (≈) assume the structure as drawn. Where two headings read alike, the source gives them in different places. Each block holds one molecule with its values, some of them ahead of it.

Assays:
[1] = tested on: Staphylococcus aureus ATCC 25923; assay: Broth microdilution, S. aureus ATCC 25923; assay type: cell-based; conditions: Sa 25923
Protocol: (§1) The antibacterial activity of the obtained thiosemicarbazides and hydrazide–hydrazones was determined by evaluating their ability to inhibit microbial growth in vitro using the broth microdilution method, according to the guidelines of the European Committee on Antimicrobial Susceptibility Testing (EUCAST). The method involved the preparation of microbial suspensions with a standardized density of 0.5 on the McFarland scale (equivalent to 1.5 × 10^8 colony-forming units/mL for bacteria and […] for fungi). A solution of the test substances was then prepared (initial concentration 1000 µg/mL, diluted in sterile Mueller-Hinton broth for bacteria or Mueller-Hinton with 2% glucose for fungi). The test was carried out in 96-well polystyrene flat-bottom plates (Medlab, Poland) with 100 µL of appropriate sterile microbiological medium in each well. The first wells were filled with 200 µL of the test substance, diluted to the initial concentration, and then double-decreasing dilutions were made under aseptic conditions using an automatic pipette. The final step was the addition of a 10-fold diluted microbial suspension of 2 µL. At the same time, the following controls were included: (a) medium control (100 µL of sterile medium without microorganisms added), (b) microbial viability control, (c) test substance control (dilutions without added micro-organisms), (d) positive control of the drug used in the clinic. The plates thus prepared were incubated for 18 ± 2 h at 35 ± 2 °C under conditions optimal for the growth of the test microorganisms. After incubation, the spectrophotometric absorbance at 570 nm in each well of the plate was read. The aim of this part of the study was to determine two parameters: the minimum inhibitory concentration (MIC) and the minimum bactericidal or fungicidal concentration (MBC/MFC) of the test compound. […] The MBC value was determined by adding 5 µL of the contents of each well of the plate to solid sterile MHA or MHA + 2%glc medium for bacteria and fungi, respectively. The area on the plate where 99.9% inhibition of microbial growth was observed indicated the lethal concentration. In addition, the quotient MBC(MFC)/MIC could be determined to assess the nature of the activity of the test substance. If MBC(MFC)/MIC was <4, the test substance was bactericidal/fungicidal, whereas if MBC(MFC)/MIC was ≥4, it was bacteriostatic/fungistatic. Amoxicillin (Glentham Life Sciences, USA) and nystatin (Glentham Life Sciences, USA) were used as the controls for this assay.
(§2) The test was performed either on bacteria, comprising: Gram-positive (Staphylococcus aureus ATCC 25923, Staphylococcus aureus ATCC 6538, Staphylococcus aureus ATCC 43300 methicillin-resistant MRSA, Staphylococcus epidermidis ATCC 12228, Micrococcus luteus ATCC 10240, Bacillus subtilis ATCC 6633, Bacillus cereus ATCC 10876) and Gram-negative (Escherichia coli ATCC 25922, Pseudomonas aeruginosa ATCC 27853, Proteus mirabilis ATCC 12453, Klebsiella pneumoniae ATCC 13883) or yeast (Candida parapsilosis ATCC 22019, Candida glabrata ATCC 90030, Candida krusei ATCC 14243, Candida glabrata ATCC 15126, Candida tropicalis ATCC 1369, Candida auris CDC B11903, Candida lusitaniae ATCC 3449) reference strains from the American Type Culture Collection (ATCC) or the Centers for Disease Control and Prevention (CDC).

[2] = tested on: Staphylococcus aureus ATCC 6538; assay: Broth microdilution, S. aureus ATCC 6538; assay type: cell-based; conditions: Sa 6538
Protocol: as §1, §2

[3] = tested on: Staphylococcus aureus ATCC 43300 methicillin-resistant MRSA; assay: Broth microdilution, S. aureus ATCC 43300 MRSA; assay type: cell-based; conditions: Sa 43300 MRSA
Protocol: as §1, §2

[4] = tested on: Bacillus subtilis ATCC 6633; assay: Broth microdilution, B. subtilis ATCC 6633; assay type: cell-based; conditions: Bs 6633; for MBC/MIC Ratio: <4 bactericidal, ≥4 bacteriostatic
Protocol: as §1, §2

[5] = tested on: Bacillus cereus ATCC 10876; assay: Broth microdilution, B. cereus ATCC 10876; assay type: cell-based; conditions: Bc 10876; for MBC/MIC Ratio: <4 bactericidal, ≥4 bacteriostatic
Protocol: as §1, §2

[6] = tested on: Candida tropicalis ATCC 1369; assay: Broth microdilution, C. tropicalis ATCC 1369; assay type: cell-based; conditions: Ct 1369
Protocol: as §1, §2

[7] = tested on: Candida glabrata ATCC 15126; assay: Broth microdilution, C. glabrata ATCC 15126; assay type: cell-based; conditions: Cg 15126
Protocol: as §1, §2

[8] = tested on: Candida krusei ATCC 14243; assay: Broth microdilution, C. krusei ATCC 14243; assay type: cell-based; conditions: Ck 14243
Protocol: as §1, §2

Candida auris CDC B11903 = assay: Broth microdilution, C. auris CDC B11903; assay type: cell-based; conditions: Ca B11903
Protocol: as §1, §2

[9] = tested on: Staphylococcus epidermidis ATCC 12228; assay: Broth microdilution, S. epidermidis ATCC 12228; assay type: cell-based; conditions: Se 12228; for MBC/MIC Ratio: <4 bactericidal, ≥4 bacteriostatic
Protocol: as §1, §2

[10] = tested on: Micrococcus luteus ATCC 10240; assay: Broth microdilution, M. luteus ATCC 10240; assay type: cell-based; conditions: Ml 10240; for MBC/MIC Ratio: <4 bactericidal, ≥4 bacteriostatic
Protocol: as §1, §2

[11] = tested on: Candida parapsilosis ATCC 22019; assay: Broth microdilution, C. parapsilosis ATCC 22019; assay type: cell-based; conditions: Cp 22019
Protocol: as §1, §2

[12] = tested on: Candida lusitaniae ATCC 3449; assay: Broth microdilution, C. lusitaniae ATCC 3449; assay type: cell-based; conditions: Cl 3449
Protocol: as §1, §2

[13] = tested on: Candida glabrata ATCC 90030; assay: Broth microdilution, C. glabrata ATCC 90030; assay type: cell-based; conditions: Cg 90030
Protocol: as §1, §2

[14] = Staphylococcus aureus, ATCC25923, read-out: MBC
[15] = Staphylococcus aureus, ATCC25923, read-out: MIC
[16] = Staphylococcus aureus, ATCC6538, read-out: MBC
[17] = Staphylococcus aureus, ATCC6538, read-out: MIC
[18] = Staphylococcus aureus, read-out: MBC
[19] = Staphylococcus aureus, read-out: MIC
[20] = Bacillus subtilis, ATCC6633, read-out: MBC
[21] = Bacillus subtilis, ATCC6633, read-out: MIC
[22] = Bacillus cereus, ATCC10876, read-out: MBC
[23] = Bacillus cereus, ATCC10876, read-out: MIC
[24] = Candida tropicalis, ATCC1369, read-out: MIC
[25] = Nakaseomyces glabratus, ATCC15126, read-out: MIC
[26] = Pichia kudriavzevii, ATCC14243, read-out: MIC
[27] = Candidozyma auris, CDCB11903, read-out: MIC
[28] = Staphylococcus epidermidis, ATCC12228, read-out: MBC
[29] = Staphylococcus epidermidis, ATCC12228, read-out: MIC
[30] = Micrococcus luteus, ATCC10240, read-out: MBC
[31] = Micrococcus luteus, ATCC10240, read-out: MIC
[32] = Lodderomyces parapsilosis, ATCC22019, read-out: MIC
[33] = Clavispora lusitaniae, ATCC3449, read-out: MIC
[34] = Nakaseomyces glabratus, ATCC90030, read-out: MIC

- MIC [1]: 500 µg/mL (≈ 1430 µM)
- MIC [2]: 1000 µg/mL (≈ 2850 µM)
- MIC [3]: 1000 µg/mL (≈ 2850 µM)
- MIC [4]: 250 µg/mL (≈ 714 µM)
- MIC [5]: 250 µg/mL (≈ 714 µM)
- MIC [6]: 250 µg/mL (≈ 714 µM)
- MIC [7]: >1000 µg/mL
- MIC [8]: >1000 µg/mL
- MIC (Candida auris CDC B11903): >1000 µg/mL
- MIC [9]: 500 µg/mL (≈ 1430 µM)
- MIC [10]: 250 µg/mL (≈ 714 µM)
- MIC [11]: 250 µg/mL (≈ 714 µM)
- MIC [12]: >1000 µg/mL
- MIC [13]: >1000 µg/mL
Compound: COc1ccc(NC(=S)NNC(=O)c2nc([N+](=O)[O-])cn2C)cc1 [Compound 11]
- MBC [1]: >1000 µg/mL
- MBC [2]: >1000 µg/mL
- MBC [3]: >1000 µg/mL
- MBC [4]: 250 µg/mL (≈ 714 µM)
- MBC/MIC Ratio [4]: 1
- MBC [5]: 250 µg/mL (≈ 714 µM)
- MBC/MIC Ratio [5]: 1
- MFC [6]: >1000 µg/mL
- MBC [9]: >1000 µg/mL
- MBC [10]: 500 µg/mL (≈ 1430 µM)
- MBC/MIC Ratio [10]: 2
- MFC [11]: >1000 µg/mL

- MIC [1]: 500 µg/mL (≈ 1500 µM)
- MIC [2]: 250 µg/mL (≈ 748 µM)
- MIC [3]: 250 µg/mL (≈ 748 µM)
- MIC [4]: 1000 µg/mL (≈ 2990 µM)
- MIC [5]: 500 µg/mL (≈ 1500 µM)
- MIC [6]: 500 µg/mL (≈ 1500 µM)
- MIC [7]: >1000 µg/mL
- MIC [8]: >1000 µg/mL
- MIC (Candida auris CDC B11903): >1000 µg/mL
- MIC [9]: 500 µg/mL (≈ 1500 µM)
- MIC [10]: 500 µg/mL (≈ 1500 µM)
- MIC [11]: >1000 µg/mL
- MIC [12]: >1000 µg/mL
- MIC [13]: >1000 µg/mL
Compound: Cc1ccccc1NC(=S)NNC(=O)c1nc([N+](=O)[O-])cn1C [Compound 15]
- MBC [1]: >1000 µg/mL
- MBC [2]: >1000 µg/mL
- MBC [3]: >1000 µg/mL
- MBC [4]: 1000 µg/mL (≈ 2990 µM)
- MBC/MIC Ratio [4]: 1
- MBC [5]: 500 µg/mL (≈ 1500 µM)
- MBC/MIC Ratio [5]: 1
- MFC [6]: >1000 µg/mL
- MBC [9]: 500 µg/mL (≈ 1500 µM)
- MBC/MIC Ratio [9]: 1
- MBC [10]: 500 µg/mL (≈ 1500 µM)
- MBC/MIC Ratio [10]: 1

- MIC [1, 15]: 250 µg/mL (≈ 748 µM)
- MIC [2, 17]: 62.5 µg/mL (≈ 187 µM)
- MIC [3, 19]: 125 µg/mL (≈ 374 µM)
- MIC [4, 21]: 500 µg/mL (≈ 1500 µM)
- MIC [5, 23]: 250 µg/mL (≈ 748 µM)
- MIC [6, 24]: > 1000 µg/mL
- MIC [7, 25]: > 1000 µg/mL
- MIC [8, 26]: > 1000 µg/mL
- MIC (Candida auris CDC B11903; [27]): > 1000 µg/mL
- MIC [9, 29]: 500 µg/mL (≈ 1500 µM)
- MIC [10, 31]: 500 µg/mL (≈ 1500 µM)
- MIC [11, 32]: 500 µg/mL (≈ 1500 µM)
- MIC [12, 33]: > 1000 µg/mL
- MIC [13, 34]: > 1000 µg/mL
Compound: Cc1cccc(NC(=S)NNC(=O)c2nc([N+](=O)[O-])cn2C)c1 [Compound 16, 1-[(1-methyl-4-nitroimidazol-2-yl)carbonyl]-4-(3-methylphenyl)-thiosemicarbazide]
- MBC [1, 14]: > 1000 µg/mL
- MBC [2, 16]: > 1000 µg/mL
- MBC [3, 18]: > 1000 µg/mL
- MBC [4, 20]: 500 µg/mL (≈ 1500 µM)
- MBC/MIC Ratio [4]: 1
- MBC [5, 22]: > 1000 µg/mL
- MBC/MIC Ratio [9]: 1
- MBC [9, 28]: 500 µg/mL (≈ 1500 µM)
- MBC [10, 30]: > 1000 µg/mL
- MFC ([11]; Lodderomyces parapsilosis, ATCC22019, read-out: MFC): > 1000 µg/mL

- MIC [1, 15]: 125 µg/mL (≈ 374 µM)
- MIC [2, 17]: 125 µg/mL (≈ 374 µM)
- MIC [3, 19]: 125 µg/mL (≈ 374 µM)
- MIC [4, 21]: 500 µg/mL (≈ 1500 µM)
- MIC [5, 23]: 62.5 µg/mL (≈ 187 µM)
- MIC [6, 24]: 250 µg/mL (≈ 748 µM)
- MIC [7, 25]: > 1000 µg/mL
- MIC [8, 26]: > 1000 µg/mL
- MIC (Candida auris CDC B11903; [27]): > 1000 µg/mL
- MIC [9, 29]: 500 µg/mL (≈ 1500 µM)
- MIC [10, 31]: 500 µg/mL (≈ 1500 µM)
- MIC [11, 32]: > 1000 µg/mL
- MIC [12, 33]: > 1000 µg/mL
- MIC [13, 34]: > 1000 µg/mL
Compound: Cc1ccc(NC(=S)NNC(=O)c2nc([N+](=O)[O-])cn2C)cc1 [Compound 17, 1-[(1-methyl-4-nitroimidazol-2-yl)carbonyl]-4-(4-methylphenyl)thiosemicarbazide]
- MBC [1, 14]: > 1000 µg/mL
- MBC/MIC Ratio ([2]; <4 bactericidal, ≥4 bacteriostatic): 1
- MBC [2, 16]: 125 µg/mL (≈ 374 µM)
- MBC [3, 18]: > 1000 µg/mL
- MBC [4, 20]: > 1000 µg/mL
- MBC [5, 22]: > 1000 µg/mL
- MFC ([6]; Candida tropicalis, ATCC1369, read-out: MFC): > 1000 µg/mL
- MBC [9, 28]: > 1000 µg/mL
- MBC [10, 30]: > 1000 µg/mL

- melting point: 280 to 284 °C
Compound: Cn1cc([N+](=O)[O-])nc1C(=O)NN=Cc1ccccc1 [Compound 19, 1-methyl-4-nitro-N’-(phenylmethylidene)-1H-imidazole-2-carbohydrazide]

- melting point: 234 to 236 °C
Compound: Cn1cc([N+](=O)[O-])nc1C(=O)NN=Cc1ccccc1Cl [Compound 20, N’-[(2-chlorophenyl)methylidene]-1-methyl-4-nitro-1H-imidazole-2-carbohydrazide]
